Assay [1] deals with T1, recombinant human estrogen receptors-alpha (ER-α) (Homo sapiens, UniProt P03372).
T1 construct: purchased
T1 sequence (P03372 1-595): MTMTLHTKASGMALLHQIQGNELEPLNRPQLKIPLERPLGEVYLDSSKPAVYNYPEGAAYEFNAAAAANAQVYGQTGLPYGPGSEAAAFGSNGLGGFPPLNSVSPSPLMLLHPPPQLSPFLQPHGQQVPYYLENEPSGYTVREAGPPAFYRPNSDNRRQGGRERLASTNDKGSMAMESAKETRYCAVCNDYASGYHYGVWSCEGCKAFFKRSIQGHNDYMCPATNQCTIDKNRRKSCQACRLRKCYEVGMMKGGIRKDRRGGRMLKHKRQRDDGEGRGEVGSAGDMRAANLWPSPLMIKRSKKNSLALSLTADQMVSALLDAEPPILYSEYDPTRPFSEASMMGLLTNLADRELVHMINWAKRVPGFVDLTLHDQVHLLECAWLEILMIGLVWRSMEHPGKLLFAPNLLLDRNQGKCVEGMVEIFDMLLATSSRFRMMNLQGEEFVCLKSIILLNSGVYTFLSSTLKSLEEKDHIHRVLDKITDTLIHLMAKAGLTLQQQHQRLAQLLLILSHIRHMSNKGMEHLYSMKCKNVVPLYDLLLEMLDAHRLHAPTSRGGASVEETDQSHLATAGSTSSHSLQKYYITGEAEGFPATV
Put plainly: Estrogen receptor competitive binding assay (fluorescence polarization kit), ER-α. As for the experimental part:
(§1) The ability of the tetraphenolic dimer (Structure 3) and tetraacetoxy dimer (Structure 2) to interact with estrogen receptor alpha and beta was determined using a commercially available estrogen receptor binding kit. This kit employs a competitive binding assay to determine the relative binding affinity of test compounds for recombinant human estrogen receptors-alpha (ER-α) and beta (ER-β). […] The complex is then added to decreasing concentrations of competitor test compounds. The shift in polarization in the presence of test compound is used to determine the relative affinity of test compounds for the estrogen receptor.
Background: Polarisation of emitted light reports the rotation of a fluorescent probe.

Assay [2] concerns the target T2, recombinant human estrogen receptor beta (ER-β) (Homo sapiens, UniProt Q92731).
T2 construct: purchased
Briefly: Estrogen receptor competitive binding assay (fluorescence polarization kit), ER-β. The method, then: as §1

The test system of another assay is prostate (PC3). Put plainly: Cell cytotoxicity assay (MTT), PC3. It counts as cell-based, human. The following applies: read-out: Cell Line IC50 PC3. As for the experimental part:
(§2) The anticancer potential of the tetraphenolic dimer (Structure 3) and the tetraacetoxy dimer (Structure 2) was assessed using a panel of human tumour cell lines, including glioma (C6), prostate (PC3), breast (MCF-7), soft tissue (Kym-1) and lung (NCI-H23 and NCI-H460). The cell cytotoxicity assay was conducted as per the method of Alley et al., 1988. Cell lines are exposed to varying concentrations of test compound for a fixed time. At the conclusion of the assay, the viability of the cell population is determined using the hydrogen acceptor reagent 3-(4,5-dimethylthiazol-2-yl)-2,5 diphenyltetrazolium bromide (MTT). The concentration of compound required to inhibit 50% of cell growth in comparison to a control (IC50) is an indicator of effectiveness of the compound. (i.e. the lower the concentration of compound required to inhibit 50% of normal cell proliferation, the more efficacious).

The test system of another assay is breast (MCF-7). Put plainly: Cell cytotoxicity assay (MTT), MCF-7. The assay is classed as cell-based, human. As for the experimental part:
as §2

The test system of a further assay is lung (NCI-H23). Put plainly: Cell cytotoxicity assay (MTT), NCI-H23. It counts as cell-based, human. To be noted: read-out: Cell Line IC50 NCI-H23. As for the experimental part:
as §2

The next assay deals with glioma (C6). Briefly: Cell cytotoxicity assay (MTT), C6 glioma. The assay is classed as cell-based, human. To be noted: Rattus norvegicus, read-out: Cell Line IC50 C6 Glioma. As for the experimental part:
as §2

Another assay relates to lung (NCI-H460). Briefly: Cell cytotoxicity assay (MTT), NCI-H460. The assay is classed as cell-based. To be noted: Homo sapiens, read-out: Cell Line IC50 NCI-H460. As for the experimental part:
as §2

For another assay, the system named is soft tissue (Kym-1). Briefly: Cell cytotoxicity assay (MTT), Kym-1. The assay is classed as cell-based. The following applies: Homo sapiens, read-out: Cell Line IC50 Kym-1. As for the experimental part:
as §2

Read-outs that look alike come from different tables or passages of the source.

T2 sequence (Q92731 whole entry): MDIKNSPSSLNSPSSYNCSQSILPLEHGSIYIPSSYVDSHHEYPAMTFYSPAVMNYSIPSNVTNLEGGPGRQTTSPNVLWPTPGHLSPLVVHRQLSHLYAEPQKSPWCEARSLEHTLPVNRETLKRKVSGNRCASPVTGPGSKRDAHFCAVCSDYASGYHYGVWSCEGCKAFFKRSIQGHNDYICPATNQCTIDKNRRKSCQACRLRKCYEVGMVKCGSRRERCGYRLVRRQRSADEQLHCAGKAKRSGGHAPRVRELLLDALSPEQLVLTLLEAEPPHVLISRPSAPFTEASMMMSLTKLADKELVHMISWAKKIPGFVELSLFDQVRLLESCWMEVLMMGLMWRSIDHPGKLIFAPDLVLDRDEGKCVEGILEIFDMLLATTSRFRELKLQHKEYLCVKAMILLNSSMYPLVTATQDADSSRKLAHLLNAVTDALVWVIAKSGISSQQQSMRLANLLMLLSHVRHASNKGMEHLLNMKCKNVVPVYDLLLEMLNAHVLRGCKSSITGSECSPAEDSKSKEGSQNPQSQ

As for `CC(=O)Oc1ccc(C2=Cc3cc(C4c5ccc(OC(C)=O)cc5OCC4c4ccc(OC(C)=O)cc4)c(OC(C)=O)cc3OC2)cc1` (stereo not shown) [Structure 2, Tetraacetoxy 6-(4-(isoflavan-4′,7-diol))-isoflav-3-ene-4′,7-diol], the “binding to ER-α (in words)” value in assay [1] is listed as “did not bind”. The “binding to ER-β (in words)” value in assay [2] is “did not bind”. For the same molecule, the concentration for half-maximal inhibition (IC50) in the assay on prostate (PC3) stood at 6 µM; in the assay on breast (MCF-7) (read-out: Cell Line IC50 MCF-7), 10 ± 5 µM; in the assay with lung (NCI-H23), 7.3 µM.
In the case of `Oc1ccc(C2=Cc3cc(C4c5ccc(O)cc5OCC4c4ccc(O)cc4)c(O)cc3OC2)cc1` (stereo not shown) [Structure 3, 6-(4-(Isoflavan-4′,7-diol))-isoflav-3-ene-4′,7-diol], the EC50 in assay [1] (read-out: concentration required to displace 50% of bound fluorescent estrogen ligand (EC50), ER-alpha) was 0.35 ± 0.05 µM; in assay [2] (read-out: concentration required to displace 50% of bound fluorescent estrogen ligand (EC50), ER-beta) it was 0.37 ± 0.05 µM. The IC50 in the assay with glioma (C6) was determined as 17.5 µM; in the assay with prostate (PC3) (Homo sapiens), 13.5 µM; with breast (MCF-7) (Homo sapiens, MCF7, read-out: Cell Line IC50 MCF-7) it was 18 ± 2 µM; in the assay on lung (NCI-H460), 14.4 µM; in the assay on lung (NCI-H23) (Homo sapiens) it was 13.5 µM; in the assay with soft tissue (Kym-1), 3.2 µM.

For orientation: IC50 means the point on the concentration scale where inhibition reaches its midpoint.

(Values after patent US7312344B2, “Dimeric isoflavones” (Novogen Research Pty Limited, priority 2001, dated 2007).)
